Measured values reported in patent US7705144B2, “Dyes of improved optical brightness and/or fluorescence and compositions containing them” (priority 2007, dated 2010).
Entries after “also recorded” stand apart in the source; their conditions may differ.

How the values were obtained:
[1] = unmodified precursor dye; cited from earlier work
[2] = Solubility of the dyes in water, mineral oil and organic solvents; assay type: physicochemical; conditions: for solubility in organic solvents: which solvents dissolve the dye
[3] = Stability of kaolin pigment powder in oil and in water; assay type: physicochemical; conditions: product deposited on kaolin; oil / mineral oil and water
Method: A small amount of the product was dissolved in acetone (10 mg in 20 mL), which was slowly added to kaolin (10 g). The solution was heated to 30° C. and the solvent allowed to slowly evaporate with mixing.
A small amount of the product was dissolved in methylene chloride (50 mg in 30 mL), which was slowly added to kaolin (5 g). The suspension was heated to 30° C. and the solvent allowed to slowly evaporate with mixing.

Row | Structure (SMILES) | solubility in organic solvents [2] | solubility in acetone, alcohol, and chlorinated solvents [2] | solubility in mineral oil [2] | solubility in water [2] | solubility in water of the precursor dye [1] | also measured
1 | N=C1C=CC(=C(c2ccc(N)cc2)c2ccc(N)cc2)C=C1 [pararosaniline] | – | – | – | – | water soluble | –
2 | CC1CCC(Oc2nc(Nc3ccc(CO)cc3)nc(OC3CCC(C)CC3C(C)C)n2)C(C(C)C)C1 (stereo not shown) [Compound III] | soluble only in alcohol or acetone | – | – | – | – | stability of the resulting powder in oil and in water [3]: stable in water and in mineral oil
3 | Cc1cc2nc3ccc(N(C)C)cc3[s+]c2cc1N.[Cl-] [toluidine blue O] | – | – | – | – | water soluble | –
4 | O=C1OC2(c3ccc(O)cc3Oc3cc(O)ccc32)c2ccccc21 [fluorescein] | – | – | – | – | soluble in water | –
5 | C=Cc1ccc(Nc2nc(OCCCCCCCC)nc(Oc3ccc(C(c4ccccc4)(c4ccccc4)c4ccccc4)cc3)n2)cc1 [Compound II] | solubility only to dichloromethane and toluene; also recorded: only soluble in boiling toluene or dichloromethane | show solubility | insoluble | insoluble | – | solubility in organic solvents ([2]; listed as Example 2): insoluble to common organic solvents, except for hot dichloromethane and toluene

Continued, in another order:

Row | solubility in organic solvents [2] | solubility in acetone, alcohol, and chlorinated solvents [2] | solubility in mineral oil [2] | solubility in water [2] | Structure (SMILES) | solubility in water of the precursor dye [1] | also measured
6 | soluble only in alcohol or acetone | dissolves | insoluble | not soluble | CC1CCC(Oc2nc(Oc3ccc4c(-c5ccccc5C(=O)O)c5ccc(=O)cc-5oc4c3)nc(OC3CCC(C)CC3C(C)C)n2)C(C(C)C)C1 (stereo not shown) [Compound IV] | – | –
7 | – | show solubility | insoluble | insoluble | CCCCCCCCOc1nc(Nc2cc3sc4cc(=[N+](C)C)ccc-4nc3cc2C)nc(N(c2ccccc2)c2ccccc2)n1 [Compound I] | – | solubility in methanol ([2]; methanol): soluble; stability of the resulting powder in oil and in water [3]: stable in oil and in water
